Reference: paper PMC4608362, “The therapeutic effect of chlorogenic acid against Staphylococcus aureus infection through sortase A inhibition” (Frontiers in Microbiology, 2015)

Columns and labels:
Conditions in all cases: read-out: Binding constants KA (1 × 10^5) L⋅mol^-1 (converted)
Sortase A (SrtA) [1] = target: T1, Sortase A (SrtA) (Staphylococcus aureus, UniProt Q2FV99, G192A); test: fluorescence spectroscopy quenching with purified mutant, binding constant KA, n = […]
T1 construct: SrtAΔN59 (residues 60–206)

Sortase A (SrtA) [2] = target: T2, Sortase A (SrtA) (Staphylococcus aureus, UniProt Q2FV99, C184A); test: as above
T2 construct: SrtAΔN59 (residues 60–206)

Sortase A (SrtA) [3] = target: T3, Sortase A (SrtA) (Staphylococcus aureus, UniProt Q2FV99); test: fluorescence spectroscopy quenching, binding constant KA, n = […]; also FRET inhibition of purified SrtAΔN59 (IC50 […])
T3 construct: SrtAΔN59 (residues 60–206)

## O=C(/C=C/c1ccc(O)c(O)c1)O[C@@H]1C[C@](O)(C(=O)O)C[C@@H](O)[C@H]1O [CHA, chlorogenic acid]
Sortase A (SrtA) [1]
  Kd: 2000 nM
Sortase A (SrtA) [2]
  Kd: 2130 nM
Sortase A (SrtA) [3]
  Kd: 1120 nM
